Assay results published in patent publication US11945807B2, “Splicing modulator antibody-drug conjugates and methods of use” (EISAI R&D MANAGEMENT CO., LTD., priority 2018, dated 2024).
Like-named read-outs stand apart in the source and are kept apart here.

Assays:
Ad2.2 pre-mRNA = test: In vitro splicing (IVS) RT-qPCR, HeLa nuclear extract, Ad2.2; type: biochemical
Description: (§1) To evaluate payload activity in a cell-free system, an in vitro splicing assay was performed. The payloads were incubated with nuclear extracts and pre-mRNA substrate minigenes.
(§2) HeLa nuclear extract preparation: HeLa S3 cell pellets were resuspended in hypotonic buffer (10 mM HEPES pH 7.9, 1.5 mM MgCl2, 10 mM KCl, 0.2 mM PMSF, 0.5 mM DTT) and the suspension was brought up to a total of 5 packed cell volume (PCV). After centrifugation, the supernatant was discarded, and the cells were brought up to 3 PCV with hypotonic buffer and incubated on ice for 10 min. Cells were lysed using a dounce homogenizer and then centrifuged. […]. The nuclei were gently mixed for 30 min before centrifuging. The supernatant (nuclear extract) was then dialyzed into storage buffer (20 mM HEPES pH 7.9, 100 mM KCl, 0.2 mM EDTA, 20% glycerol, 0.2 mM PMSF, 0.5 mM DTT). Protein concentration was determined using NanoDrop 8000 UV-Vis spectrophotometer (ThermoFisher Scientific).
IVS: All Ad2-derived sequences (Pellizzoni et al. (1998) Cell 95(5):615-24) were cloned into pcDNA3.1(+) vector (Promega) using 5′ EcoRI and 3′ Xbal restriction sites. The plasmids were linearized using Xbal and used as DNA templates in in vitro transcription reactions. The FtzΔi intron-less plasmid (Luo and Reed (1999) 96(26):14937-42) was linearized using EcoRI. All RNAs were in vitro transcribed and then purified using MEGAScript T7 (Invitrogen) and MegaClear (Invitrogen) kits, respectively. For splicing reactions using Ad2 variant pre-mRNAs, 1 μL reactions were prepared using 8 μg nuclear extracts prepared from HeLa S3, 2 ng pre-mRNA, 0.2 ng FTZΔi, and varying concentrations of compounds or DMSO. After a 15 min pre-incubation at 30° C., 1 μL splicing activation buffer (0.5 mM ATP, 20 mM creatine phosphate, 1.6 mM MgCl2) was added, and the reactions were incubated for 90 min at 30° C. The reactions were then quenched with 13 μL DMSO, and 25 nL was used for RT-qPCR. RT-qPCR reactions were prepared using TaqMan RNA-to-CT 1-step kit (Life Technologies), RNA from splicing reactions, Ad2 (forward: […]; reverse: […]; probe: […]) and Ftz (forward: […]; reverse: […]; probe: […]) mRNA primer-probe sets. Prism 7 (Graphpad) was used for non-linear regression curve fitting of the formed spliced product and normalized to the control (DMSO) sample. […] In the presence of payload, a decrease in the amount of spliced product was observed.

THP1.1 = test: Payload cell potency and lethality CTGlo 72 h, THP1.1; type: cell-based; conditions: cell line #3, 72 h, corresponding free payload
[1] = Caco-2 permeability of ADC payload; type: in vitro ADME; conditions: human, corresponding free payload
NCIH1650.1 = test: Payload cellular potency CTGlo-ATS 72 h, NCIH1650.1; type: cell-based; conditions: cell line #1, 72 h, corresponding free payload
NCIH1568.1 = test: Payload cellular potency CTGlo-ATS 72 h, NCIH1568.1; type: cell-based; conditions: cell line #2, 72 h, corresponding free payload
Ad2.1 pre-mRNA = test: In vitro splicing (IVS) RT-qPCR, HeLa nuclear extract, Ad2.1; type: biochemical
Description: as §1, §2
IVS: All Ad2-derived sequences (Pellizzoni et al. (1998) Cell 95(5):615-24) were cloned into pcDNA3.1(+) vector (Promega) using 5′ EcoRI and 3′ Xbal restriction sites. The plasmids were linearized using Xbal and used as DNA templates in in vitro transcription reactions. The FtzΔi intron-less plasmid (Luo and Reed (1999) 96(26):14937-42) was linearized using EcoRI. All RNAs were in vitro transcribed and then purified using MEGAScript T7 (Invitrogen) and MegaClear (Invitrogen) kits, respectively. For splicing reactions using Ad2 variant pre-mRNAs, 1 μL reactions were prepared using 8 μg nuclear extracts prepared from HeLa S3, 2 ng pre-mRNA, 0.2 ng FTZΔi, and varying concentrations of compounds or DMSO. After a 15 min pre-incubation at 30° C., 1 μL splicing activation buffer (0.5 mM ATP, 20 mM creatine phosphate, 1.6 mM MgCl2) was added, and the reactions were incubated for 90 min at 30° C. The reactions were then quenched with 13 μL DMSO, and 25 nL was used for RT-qPCR. […]

[2] = tested on: FBXW5 (mature mRNA transcript); test: In vivo PD RT-qPCR in NCI-N87 tumors, FBXW5; set-up: species or system CB17-SCID mice; conditions: single IV 10 mg/kg; N=4; FIG. 24
[3] = tested on: TAOK1 (neojunction transcript); test: In vivo PD RT-qPCR in NCI-N87 tumors, TAOK1; set-up: species or system CB17-SCID mice; conditions: single IV 10 mg/kg; N=4; FIG. 24
Caco-2 cells = test: Caco-2 permeability of ADC payload; type: in vitro ADME; conditions: unconjugated payload; apical to basolateral, 2 hours
[4] = biochemical splicing assay, corresponding free payload, read-out: qPCR-IVS-ATS GMean IC50 (nM) Ad2.2 HELA.2

Compound: CC[C@H](O)[C@@H](C)[C@H]1O[C@@H]1C[C@@](C)(O)/C=C/C=C(\C)[C@H]1OC(=O)C[C@H](O)CC[C@@](C)(OC(C)=O)[C@@H](OC(=O)N2C[C@@H]3C[C@H]2CN3)/C=C/[C@@H]1C [D5, (2S,3S,6S,7R,10R,E)-7-acetoxy-10-hydroxy-2-((R,2E,4E)-6-hydroxy-7-((2R,3R)-3-((2R,3S)-3-hydroxypentan-2-yl)oxiran-2-yl)-6-methylhepta-2,4-dien-2-yl)-3,7-dimethyl-12-oxooxacyclododec-4-en-6-yl (1S,4S)-2,5-diazabicyclo[2.2.1]heptane-2-carboxylate]
- IC50 (Ad2.2 pre-mRNA; [4]): 23.9 nM

Compound: CC[C@H](O)[C@@H](C)[C@H]1O[C@@H]1C[C@@](C)(O)/C=C/C=C(\C)[C@H]1OC(=O)C[C@H](O)CC[C@@](C)(O)[C@@H](OC(=O)N2CCNCC2)/C=C/[C@@H]1C [D12, (2S,3S,6S,7R,10R,E)-7,10-dihydroxy-2-((R,2E,4E)-6-hydroxy-7-((2R,3R)-3-((2R,3S)-3-hydroxypentan-2-yl)oxiran-2-yl)-6-methylhepta-2,4-dien-2-yl)-3,7-dimethyl-12-oxooxacyclododec-4-en-6-yl piperazine-1-carboxylate]
- IC50 (Ad2.2 pre-mRNA; [4]): 25.1 nM
- CTGlo-ATS GMean LD50 (nM) 72 h THP1.1 (THP1.1): 900.227 nM
- GI50 (THP1.1; read-out: CTGlo-ATS GMean GI50 (nM) 72 h THP1.1): 202 nM
- Papp A→B at 2 h, 10 NM ([1]; Caco-2, A-B, read-out: Perm. Mean Caco 2 A-B Perm (10e−6 cm/s)): 0.17 ×10⁻⁶ cm/s
- Papp B→A at 2 h, 10 NM ([1]; Caco-2, B-A, read-out: Perm. Mean Caco 2 B-A Perm (10e−6 cm/s)): 0.23 ×10⁻⁶ cm/s
- efflux ratio at 2 h, 10 NM ([1]; Caco-2 efflux ratio, read-out: ER): 1.35
- CTGlo-ATS GMean LD50 (nM) 72 h NCIH1650.1 (NCIH1650.1): >10000.00 nM
- GI50 (NCIH1650.1; read-out: CTGlo-ATS GMean GI50 (nM) 72 h NCIH1650.1): 258 nM
- CTGlo-ATS GMean LD50 (nM) 72 h NCIH1568.1 (NCIH1568.1): 1193.037 nM
- GI50 (NCIH1568.1; read-out: CTGlo-ATS GMean GI50 (nM) 72 h NCIH1568.1): 164 nM
- IC50 (Ad2.1 pre-mRNA; biochemical splicing assay, corresponding free payload, read-out: qPCR-IVS-ATS GMean IC50 (nM) Ad2.1 HELA.2): 16.5 nM
- Ratio Ad2.1/2.2 (Ad2.1 pre-mRNA; ratio of IVS IC50 Ad2.1/Ad2.2, corresponding free payload): 0.659

Compound: CC(=O)N1CCC(n2nnc3c(F)cc(/C=C(\C)[C@H]4OC(=O)C[C@H](O)CC[C@H](C)[C@@H](OC(=O)N5CC[N+](C)(Cc6ccc(NC(=O)[C@H](C)NC(=O)[C@@H](NC(=O)CCCCCN7C(=O)C=CC7=O)C(C)C)cc6)CC5)/C=C/[C@@H]4C)cc32)CC1 [ADL5-D15, 4-((((2S,3S,6R,7S,10R,E)-2-((E)-1-(1-(1-acetylpiperidin-4-yl)-4-fluoro-1H-benzo[d][1,2,3]triazol-6-yl)prop-1-en-2-yl)-10-hydroxy-3,7-dimethyl-12-oxooxacyclododec-4-en-6-yl)oxy)carbonyl)-1-(4-((S)-2-((S)-2-(6-(2,5-dioxo-2,5-dihydro-1H-pyrrol-1-yl)hexanamido)-3-methylbutanamido)propanamido)benzyl)-1-methylpiperazin-1-ium]
- change of FBXW5 mature mRNA transcript in tumor [2]: significant depletion
- change of TAOK1 neojunction transcript in tumor [3]: an increase in TAOK1, but did not reach statistical significance

Compound: CC[C@H](O)[C@@H](C)[C@H]1O[C@@H]1C[C@@](C)(O)/C=C/C=C(\C)[C@H]1OC(=O)C[C@H](O)CC[C@@](C)(OC(C)=O)[C@@H](OC(=O)N2CCN(C(=O)OCc3ccc(NC(=O)[C@H](CCCNC(N)=O)NC(=O)[C@@H](NC(=O)CCCCCN4C(=O)C=CC4=O)C(C)C)cc3)CC2)/C=C/[C@@H]1C [ADL1-D4]
- change of FBXW5 mature mRNA transcript in tumor [2]: significant depletion
- change of TAOK1 neojunction transcript in tumor [3]: significant increases

Compound: COc1cc2cc(c1Cl)N(C)C(=O)C[C@H](OC(=O)[C@H](C)N(C)C(=O)CCS)[C@]1(C)O[C@H]1[C@H](C)[C@@H]1C[C@@](O)(NC(=O)O1)[C@H](OC)/C=C/C=C(\C)C2 [DM1, reference compound]
- IC50 (Ad2.2 pre-mRNA; unconjugated payload, HeLa nuclear extract, read-out: qPCR-IVS-AT S GMean IC50 (nM) Ad2.2 HELA.2): < 25000 nM
- Permeability Mean Caco-2 A-B Perm (10e−6 cm/s) (Caco-2 cells): 0.38 10e−6 cm/s
- IC50 (Ad2.1 pre-mRNA; unconjugated payload, HeLa nuclear extract, read-out: qPCR-IVS-AT S Gmean IC50 (nm) Ad2.1 HELA.2): > 25000 nM

Compound: CC[C@H](O)[C@@H](C)C1OC1C[C@@](C)(O)/C=C/C=C(\C)[C@H]1OC(=O)C[C@H](O)CC[C@@](C)(OC)[C@@H](OC(=O)N2CCN(CCN3C(=O)C=CC3=O)CC2)/C=C/[C@@H]1C (stereo in doubt) [ADL14-D1, (2S,3S,6S,7R,10R,E)-10-hydroxy-2-((R,2E,4E)-6-hydroxy-7-((2S,3S)-3-((2R,3S)-3-hydroxypentan-2-yl)oxiran-2-yl)-6-methylhepta-2,4-dien-2-yl)-7-methoxy-3,7-dimethyl-12-oxooxacyclododec-4-en-6-yl 4-(2-(2,5-dioxo-2,5-dihydro-1H-pyrrol-1-yl)ethyl)piperazine-1-carboxylate]
- change of FBXW5 mature mRNA transcript in tumor [2]: did not exhibit statistically significant changes
- change of TAOK1 neojunction transcript in tumor [3]: did not exhibit statistically significant changes

Compound: CC[C@H](O)[C@@H](C)[C@H]1O[C@@H]1C[C@@](C)(O)/C=C/C=C(\C)[C@H]1OC(=O)C[C@H](O)CC[C@@](C)(OC(C)=O)[C@@H](OC(=O)N2CCN(CCN)CC2)/C=C/[C@@H]1C [D3, (2S,3S,6S,7R,10R,E)-7-acetoxy-10-hydroxy-2-((R,2E,4E)-6-hydroxy-7-((2R,3R)-3-((2R,3S)-3-hydroxypentan-2-yl)oxiran-2-yl)-6-methylhepta-2,4-dien-2-yl)-3,7-dimethyl-12-oxooxacyclododec-4-en-6-yl 4-(2-aminoethyl)piperazine-1-carboxylate]
- IC50 (Ad2.2 pre-mRNA; [4]): 10.9 nM
